Where a SMILES comes first, the peptide text is derived from it. Bridges are numbered along the chain shown (N, C = ends). [ ]: non-standard residue; d: D form. The star is where a group is joined. Bip = N[C@@H](Cc1ccc(-c2ccccc2)cc1)C(=O)O; Phe(3-Me) = Cc1cccc(C[C@H](N)C(=O)O)c1; Cha = N[C@@H](CC1CCCCC1)C(=O)O; Carboxymethyl = O=C(O)C*; NMeA = CN[C@@H](C)C(=O)O; Orn = NCCC[C@H](N)C(=O)O; Aun = NCCCCCCCCCCC(=O)O; Dab = NCC[C@H](N)C(=O)O; Dap = NC[C@H](N)C(=O)O; AEEA = NCCOCCOCC(=O)O; Ac3c = NC1(C(=O)O)CC1

T1 sequence (Q15116 25-288): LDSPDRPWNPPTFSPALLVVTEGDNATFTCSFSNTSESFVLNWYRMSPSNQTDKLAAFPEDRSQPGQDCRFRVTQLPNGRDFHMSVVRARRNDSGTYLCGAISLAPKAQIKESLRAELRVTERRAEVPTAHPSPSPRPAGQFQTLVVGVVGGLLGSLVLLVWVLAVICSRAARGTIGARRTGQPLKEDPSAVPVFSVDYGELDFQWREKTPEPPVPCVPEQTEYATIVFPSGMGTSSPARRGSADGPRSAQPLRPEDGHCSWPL

This assay concerns the target T1, PD-1/PD-L1 interaction (PE-labeled human PD-L1-Ig binding to Jurkat cell line over-expressing human PD-1) (Homo sapiens, UniProt Q15116).
T1 construct: expressed in transfected cells; host or cells: Jurkat
The assay can be described thus: Jurkat-PD-1 Cell Binding High-Content Screening Assay (CBA). The note with it: Jurkat-hPD-1 cells, PE-labeled PD-L1-Ig 20 nM final; read-out: Jurkat HPD1 PDL1 IC50. Put shortly:
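In this imaging assay, cells in 10% FCS medium see compound for 2 h at 37 °C and then labeled ligand at 20 nM final for 1 h. Paraformaldehyde fixation, Hoechst 33342 staining and dPBS washes precede image capture.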
In general, IC50 refers to the concentration needed to halve the response being measured. In the case of `Cc1cccc(C[C@@H]2NC(=O)[C@H](CC(=O)O)NC(=O)[C@H](Cc3ccc(OCC(=O)O)cc3)NC(=O)[C@H](Cc3ccc(OCC(=O)O)cc3)NC(=O)CSC[C@@H](C(=O)NC3(C(=O)NCCOCCOCC(=O)NCCCCCCCCCCC(=O)O)CC3)NC(=O)[C@H](CCCNC(=N)N)NC(=O)[C@H](C(C)C)NC(=O)[C@H](CC3CCCCC3)NC(=O)[C@H](CCN)NC(=O)[C@@H](CC(C)C)NC(=O)[C@H](C)N(C)C(=O)[C@H](C(C)C)NC(=O)[C@H](Cc3ccc(-c4ccccc4)cc3)NC(=O)[C@H](CC(C)C)NC2=O)c1` [Example 1250] ({CH2CO}-Y(Carboxymethyl)Y(Carboxymethyl)D[Phe(3-Me)]L[Bip]V[NMeA][dL][Dab][Cha]VRC[Ac3c][AEEA][Aun]-OH; thioether N-14), the 50% inhibitory concentration (IC50) is 2.8 nM.
In the case of `Cc1cccc(C[C@@H]2NC(=O)[C@H](CC(=O)O)NC(=O)[C@H](Cc3ccc(OCC(=O)O)cc3)NC(=O)[C@H](Cc3ccc(OCC(=O)O)cc3)NC(=O)CSC[C@@H](C(=O)NC3(C(=O)NCCOCCOCC(=O)NCCCCCCCCCCC(=O)O)CC3)NC(=O)[C@H](CCCN)NC(=O)[C@H](C(C)C)NC(=O)[C@H](CC3CCCCC3)NC(=O)[C@H](CCN)NC(=O)[C@@H](CC(C)C)NC(=O)[C@H](C)N(C)C(=O)[C@H](Cc3ccc(O)cc3)NC(=O)[C@H](Cc3ccc(-c4ccccc4)cc3)NC(=O)[C@H](CC(C)C)NC2=O)c1` [Example 1251] ({CH2CO}-Y(Carboxymethyl)Y(Carboxymethyl)D[Phe(3-Me)]L[Bip]Y[NMeA][dL][Dab][Cha]V[Orn]C[Ac3c][AEEA][Aun]-OH; thioether N-14) it was 11.8 nM; in that of `Cc1cccc(C[C@@H]2NC(=O)[C@H](CC(=O)O)NC(=O)[C@H](Cc3ccc(OCC(=O)O)cc3)NC(=O)[C@H](CN)NC(=O)CSC[C@@H](C(=O)NC3(C(=O)NCCOCCOCC(=O)NCCCCCCCCCCC(=O)O)CC3)NC(=O)[C@H](CCCN)NC(=O)[C@H](C(C)C)NC(=O)[C@H](CC3CCCCC3)NC(=O)[C@H](CCN)NC(=O)[C@@H](CC(C)C)NC(=O)[C@H](C)N(C)C(=O)[C@H](Cc3ccc(O)cc3)NC(=O)[C@H](Cc3ccc(-c4ccccc4)cc3)NC(=O)[C@H](Cc3ccc(O)cc3)NC2=O)c1` [Example 1252] ({CH2CO}-[Dap]Y(Carboxymethyl)D[Phe(3-Me)]Y[Bip]Y[NMeA][dL][Dab][Cha]V[Orn]C[Ac3c][AEEA][Aun]-OH; thioether N-14), 22.8 nM.
The same measure for `Cc1cccc(C[C@@H]2NC(=O)[C@H](CC(=O)O)NC(=O)[C@H](Cc3ccc(OCC(=O)O)cc3)NC(=O)[C@H](Cc3ccc(OCC(=O)O)cc3)NC(=O)CSC[C@@H](C(=O)NC3(C(=O)NCCOCCOCC(=O)NCCCCCCCCCCC(=O)O)CC3)NC(=O)[C@H](CCCNC(=N)N)NC(=O)[C@H](C(C)C)NC(=O)[C@H](CC3CCCCC3)NC(=O)[C@H](CCN)NC(=O)[C@@H](CC(C)C)NC(=O)[C@H](C)N(C)C(=O)[C@H](Cc3ccc(O)cc3)NC(=O)[C@H](Cc3ccc(-c4ccccc4)cc3)NC(=O)[C@H](Cc3ccc(O)cc3)NC2=O)c1` [Example 1253] ({CH2CO}-Y(Carboxymethyl)Y(Carboxymethyl)D[Phe(3-Me)]Y[Bip]Y[NMeA][dL][Dab][Cha]VRC[Ac3c][AEEA][Aun]-OH; thioether N-14): 16.6 nM; for `Cc1cccc(C[C@@H]2NC(=O)[C@H](CC(=O)O)NC(=O)[C@H](Cc3ccc(OCC(=O)O)cc3)NC(=O)[C@H](Cc3ccc(OCC(=O)O)cc3)NC(=O)CSC[C@@H](C(=O)N[C@@H](CCN)C(=O)NCCCCCCCCCCC(=O)O)NC(=O)[C@H](CCCN)NC(=O)[C@H](C(C)C)NC(=O)[C@H](CC3CCCCC3)NC(=O)[C@H](CCN)NC(=O)[C@@H](CC(C)C)NC(=O)[C@H](C)N(C)C(=O)[C@H](Cc3ccc(O)cc3)NC(=O)[C@H](Cc3ccc(-c4ccccc4)cc3)NC(=O)[C@H](C(C)C)NC2=O)c1` [Example 1254] ({CH2CO}-Y(Carboxymethyl)Y(Carboxymethyl)D[Phe(3-Me)]V[Bip]Y[NMeA][dL][Dab][Cha]V[Orn]C[Dab][Aun]-OH; thioether N-14): 12.5 nM.

The values above are taken from US20260070945A1, “MACROCYCLIC IMMUNOMODULATORS” (Bristol-Myers Squibb Company, priority 2022, published 2026).
